Assay results reported in ChEMBL document CHEMBL3992500, “Design, facile synthesis and biological evaluations of novel pyrano[3,2-a]phenazine hybrid molecules as antitumor agents” (Eur J Med Chem, 2017).
Calls of active or inactive are those of the source. The rule behind the calls is not given here.

Experiments:
HCT-116 = assay: Antiproliferative activity against human HCT116 cells after 48 hrs by MTT assay; assay type: functional, cell-based; conditions: HCT-116, 48 h
MCF7 = assay: Antiproliferative activity against human MCF7 cells after 48 hrs by MTT assay; assay type: functional, cell-based; conditions: MCF7, 48 h
HepG2 = assay: Antiproliferative activity against human HepG2 cells after 48 hrs by MTT assay; assay type: functional, cell-based; conditions: HepG2, 48 h
A549 = assay: Antiproliferative activity against human A549 cells after 48 hrs by MTT assay; assay type: functional, cell-based; conditions: A549, 48 h
[1] = Antitumor activity against mouse H22-H8D8 cells implanted in ICR mouse assessed as tumor growth inhibition at 5 mg/kg, iv relative to control; assay type: functional; conditions: read-out: TGI
[2] = Antitumor activity against mouse H22-H8D8 cells implanted in ICR mouse assessed as tumor growth inhibition at 10 mg/kg, iv relative to control; assay type: functional; conditions: read-out: TGI
[3] = Antitumor activity against mouse H22-H8D8 cells implanted in ICR mouse assessed as tumor growth inhibition at 20 mg/kg, iv relative to control; assay type: functional; conditions: read-out: TGI
Mus musculus [4] = assay: Toxicity in ICR mouse implanted with mouse H22-H8D8 cells assessed as body weight at 5 mg/kg, iv (reference value: 29.89 to 33.78 g); assay type: organism-based; conditions: in vivo
Mus musculus [5] = assay: Toxicity in ICR mouse implanted with mouse H22-H8D8 cells assessed as body weight at 10 mg/kg, iv (reference value: 29.89 to 33.78 g); assay type: organism-based; conditions: in vivo
Mus musculus [6] = assay: Toxicity in ICR mouse implanted with mouse H22-H8D8 cells assessed as body weight at 20 mg/kg, iv (reference value: 29.89 to 33.78 g); assay type: organism-based; conditions: in vivo
[7] = biological target: T1, DNA topoisomerase 1 (Homo sapiens) (UniProt P11387); assay: Inhibition of DNA topoisomerase-1 (unknown origin) assessed as reduction in enzyme-catalyzed relaxation of pBR322 DNA substrate at 20 uM after 30 mins by ethidium bromide staining based electrophoresis
T1 sequence (whole entry): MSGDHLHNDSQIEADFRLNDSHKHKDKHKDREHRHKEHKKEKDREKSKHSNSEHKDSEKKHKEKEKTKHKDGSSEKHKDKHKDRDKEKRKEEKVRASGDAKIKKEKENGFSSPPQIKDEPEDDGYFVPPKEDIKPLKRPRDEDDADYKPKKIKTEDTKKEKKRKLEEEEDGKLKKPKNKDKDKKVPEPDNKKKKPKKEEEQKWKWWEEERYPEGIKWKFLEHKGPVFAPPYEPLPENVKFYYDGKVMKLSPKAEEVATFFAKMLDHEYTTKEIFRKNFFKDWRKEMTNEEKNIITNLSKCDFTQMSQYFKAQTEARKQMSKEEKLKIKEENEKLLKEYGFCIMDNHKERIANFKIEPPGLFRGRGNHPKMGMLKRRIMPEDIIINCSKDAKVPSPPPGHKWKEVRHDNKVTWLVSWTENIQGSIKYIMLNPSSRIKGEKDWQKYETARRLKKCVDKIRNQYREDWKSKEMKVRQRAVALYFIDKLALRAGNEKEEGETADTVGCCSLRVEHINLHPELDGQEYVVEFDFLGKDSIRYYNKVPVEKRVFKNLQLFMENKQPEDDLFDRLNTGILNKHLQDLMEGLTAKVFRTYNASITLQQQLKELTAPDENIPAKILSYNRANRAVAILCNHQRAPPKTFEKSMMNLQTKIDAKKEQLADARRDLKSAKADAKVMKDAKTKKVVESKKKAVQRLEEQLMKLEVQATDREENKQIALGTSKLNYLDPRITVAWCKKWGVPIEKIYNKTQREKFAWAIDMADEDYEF

[8] = biological target: DNA topoisomerase 2-alpha (Homo sapiens) (UniProt P11388); assay: Inhibition of DNA topoisomerase-2alpha (unknown origin) assessed as reduction in enzyme-catalyzed relaxation of pBR322 DNA substrate at 20 uM after 30 mins by ethidium bromide staining based electrophoresis
DNA topoisomerase 2-alpha (Homo sapiens), sequence (P11388 whole entry): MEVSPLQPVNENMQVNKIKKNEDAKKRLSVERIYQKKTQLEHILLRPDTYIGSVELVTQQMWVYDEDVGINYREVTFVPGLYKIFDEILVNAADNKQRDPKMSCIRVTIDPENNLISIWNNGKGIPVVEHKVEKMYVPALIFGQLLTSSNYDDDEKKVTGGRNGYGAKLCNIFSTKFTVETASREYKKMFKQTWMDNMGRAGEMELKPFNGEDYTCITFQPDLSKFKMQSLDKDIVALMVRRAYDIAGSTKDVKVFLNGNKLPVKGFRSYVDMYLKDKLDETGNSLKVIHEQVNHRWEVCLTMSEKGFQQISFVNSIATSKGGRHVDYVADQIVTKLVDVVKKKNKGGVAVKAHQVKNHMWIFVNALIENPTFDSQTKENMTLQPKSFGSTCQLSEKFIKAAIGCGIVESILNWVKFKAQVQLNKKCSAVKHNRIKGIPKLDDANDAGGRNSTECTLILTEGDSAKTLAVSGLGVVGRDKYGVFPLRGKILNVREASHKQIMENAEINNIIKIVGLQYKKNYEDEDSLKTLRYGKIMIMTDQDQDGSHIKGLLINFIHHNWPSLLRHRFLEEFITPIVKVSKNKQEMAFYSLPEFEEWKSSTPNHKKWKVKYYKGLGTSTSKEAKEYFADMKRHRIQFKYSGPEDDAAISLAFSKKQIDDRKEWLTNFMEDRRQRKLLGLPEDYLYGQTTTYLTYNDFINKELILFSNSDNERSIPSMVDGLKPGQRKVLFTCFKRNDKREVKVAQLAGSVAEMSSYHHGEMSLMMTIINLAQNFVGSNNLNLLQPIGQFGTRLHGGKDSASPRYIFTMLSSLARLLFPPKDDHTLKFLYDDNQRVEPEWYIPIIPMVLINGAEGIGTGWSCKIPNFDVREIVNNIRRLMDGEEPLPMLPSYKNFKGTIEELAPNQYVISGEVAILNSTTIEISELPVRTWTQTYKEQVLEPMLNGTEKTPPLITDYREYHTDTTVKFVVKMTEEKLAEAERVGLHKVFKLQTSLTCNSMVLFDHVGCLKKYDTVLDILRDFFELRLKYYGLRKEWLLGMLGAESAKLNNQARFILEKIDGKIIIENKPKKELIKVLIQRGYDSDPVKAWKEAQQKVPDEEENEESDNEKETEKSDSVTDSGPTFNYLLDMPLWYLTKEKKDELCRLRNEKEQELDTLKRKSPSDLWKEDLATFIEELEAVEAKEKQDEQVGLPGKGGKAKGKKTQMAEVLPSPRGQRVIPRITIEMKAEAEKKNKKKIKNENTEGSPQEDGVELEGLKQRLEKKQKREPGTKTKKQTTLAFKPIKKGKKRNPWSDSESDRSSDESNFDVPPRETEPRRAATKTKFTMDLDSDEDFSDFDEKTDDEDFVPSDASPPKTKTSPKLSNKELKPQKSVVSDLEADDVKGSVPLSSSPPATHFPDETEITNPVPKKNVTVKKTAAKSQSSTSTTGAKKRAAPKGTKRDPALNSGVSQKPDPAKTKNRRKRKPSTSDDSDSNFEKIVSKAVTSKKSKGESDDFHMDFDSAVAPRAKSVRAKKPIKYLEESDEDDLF

Compound	IC50 (HCT-116)	IC50 (MCF7)	IC50 (HepG2)	IC50 (A549)	inhibition in vivo at 5 mg/kg [1]	inhibition in vivo at 10 mg/kg [2]	inhibition in vivo at 20 mg/kg [3]	Activity (Mus musculus [4])	Activity (Mus musculus [5])	Activity (Mus musculus [6])	inhibition [7]	inhibition [8]
COc1cc(C2C(C#N)=C(N)Oc3c(N)cc4nc5ccccc5nc4c32)cc(OC)c1O (stereo not drawn)	7.6 µM	28.8 µM	> 50 µM	> 50 µM	–	–	–	–	–	–	–	–
CCc1ccc(C2C(C#N)=C(N)Oc3c(N)cc4nc5ccccc5nc4c32)cc1 (stereo not drawn)	5.5 µM	19.1 µM	15.5 µM	23.4 µM	–	–	–	–	–	–	–	–
N#CC1=C(N)Oc2c(N)cc3nc4ccccc4nc3c2C1c1cccc(Cl)c1 (stereo not drawn)	15.1 µM	39.1 µM	9.4 µM	21.4 µM	–	–	–	–	–	–	–	–
N#CC1=C(N)Oc2c(N)cc3nc4ccccc4nc3c2C1c1cccc([N+](=O)[O-])c1 (stereo not drawn)	> 50 µM	20.3 µM	> 50 µM	26.6 µM	–	–	–	–	–	–	–	–
CCOC(=O)C1=C(N)Oc2c(N)cc3nc4ccccc4nc3c2C1c1cc(Br)c(OC)c(OC)c1 (stereo not drawn)	9.7 µM	> 50 µM	10.3 µM	10.3 µM	–	–	–	–	–	–	–	–
CCOC(=O)C1=C(N)Oc2c(N)cc3nc4ccccc4nc3c2C1c1cccc(Br)c1 (stereo not drawn)	10.8 µM	> 50 µM	> 50 µM	13.4 µM	–	–	–	–	–	–	–	–
CCOC(=O)C1=C(N)Oc2c(N)cc3nc4ccccc4nc3c2C1c1ccc(CC)cc1 (stereo not drawn)	15.1 µM	> 50 µM	30.4 µM	39.1 µM	–	–	–	–	–	–	–	–
COc1cc(OC)c(C2C(C#N)=C(N)Oc3c(N)cc4nc5ccccc5nc4c32)cc1OC (stereo not drawn)	30.6 µM	> 50 µM	23.1 µM	44.6 µM	–	–	–	–	–	–	–	–
CCOC(=O)C1=C(N)Oc2c(N)cc3nc4ccccc4nc3c2C1c1c(Cl)cccc1Cl (stereo not drawn)	12.4 µM	> 50 µM	40.1 µM	> 50 µM	–	–	–	–	–	–	–	–
N#CC1=C(N)Oc2c(N)cc3nc4ccccc4nc3c2C1c1ccccc1Cl (stereo not drawn)	7.4 µM	25.1 µM	8.4 µM	6.3 µM	–	–	–	–	–	–	–	–
N#CC1=C(N)Oc2c(N)cc3nc4ccccc4nc3c2C1c1ccc(Br)cc1 (stereo not drawn)	6.3 µM	> 50 µM	10.3 µM	11.2 µM	–	–	–	–	–	–	–	–
CCOC(=O)C1=C(N)Oc2c(N)cc3nc4ccccc4nc3c2C1c1ccc(Br)cc1 (stereo not drawn)	20.2 µM	> 50 µM	10.6 µM	17.3 µM	–	–	–	–	–	–	–	–
CCOC(=O)C1=C(N)Oc2c(N)cc3nc4ccccc4nc3c2C1c1ccc(Cl)cc1Cl (stereo not drawn)	12.1 µM	> 50 µM	11.5 µM	19.1 µM	–	–	–	–	–	–	–	–
COc1ccc(C2C(C#N)=C(N)Oc3c(N)cc4nc5ccccc5nc4c32)cc1F (stereo not drawn)	20.4 µM	> 50 µM	7.8 µM	11.3 µM	–	–	–	–	–	–	–	–
CCOC(=O)C1=C(N)Oc2c(N)cc3nc4ccccc4nc3c2C1c1ccc(OC)c(F)c1 (stereo not drawn)	20.5 µM	> 50 µM	8.5 µM	24.8 µM	–	–	–	–	–	–	–	–
N#CC1=C(N)Oc2c(N)cc3nc4ccccc4nc3c2C1c1c(Cl)cccc1Cl (stereo not drawn)	10.2 µM	40.2 µM	> 50 µM	12 µM	–	–	–	–	–	–	–	–
CCOC(=O)C1=C(N)Oc2c(N)cc3nc4ccccc4nc3c2C1c1cc(OC)c(Br)c(OC)c1 (stereo not drawn)	20.1 µM	> 50 µM	10.1 µM	13.5 µM	–	–	–	–	–	–	–	–
CCOC(=O)C1=C(N)Oc2c(N)cc3nc4ccccc4nc3c2C1c1cccc(Cl)c1Cl (stereo not drawn)	7.8 µM	> 50 µM	4.48 µM	7.24 µM	27%	4.5%	26.1%	37.78 g	39.22 g	40.33 g	Active	Active
N#CC1=C(N)Oc2c(N)cc3nc4ccccc4nc3c2C1c1ccc(Cl)cc1 (stereo not drawn)	10.2 µM	18.6 µM	2.2 µM	9.5 µM	0.09%	11.7%	57.7%	40 g	41.33 g	37.22 g	Active	Active

Compound	IC50 (HCT-116)	IC50 (MCF7)	IC50 (HepG2)	IC50 (A549)	inhibition in vivo at 5 mg/kg [1]	inhibition in vivo at 10 mg/kg [2]	inhibition in vivo at 20 mg/kg [3]	Activity (Mus musculus [4])	Activity (Mus musculus [5])	Activity (Mus musculus [6])	inhibition [7]	inhibition [8]
CCOC(=O)C1=C(N)Oc2c(N)cc3nc4ccccc4nc3c2C1c1ccccc1[N+](=O)[O-] (stereo not drawn)	18.2 µM	18.6 µM	7.4 µM	14.5 µM	–	–	–	–	–	–	–	–
COc1ccc(Br)cc1C1C(C#N)=C(N)Oc2c(N)cc3nc4ccccc4nc3c21 (stereo not drawn)	30.1 µM	> 50 µM	11.7 µM	14.1 µM	–	–	–	–	–	–	–	–
CCOC(=O)C1=C(N)Oc2c(N)cc3nc4ccccc4nc3c2C1c1ccc([N+](=O)[O-])cc1 (stereo not drawn)	16.4 µM	13.2 µM	6.7 µM	18.8 µM	–	–	–	–	–	–	–	–
CCOC(=O)C1=C(N)Oc2c(N)cc3nc4ccccc4nc3c2C1c1ccc(Cl)cc1 (stereo not drawn)	8.2 µM	10 µM	7.2 µM	5.5 µM	–	–	–	–	–	–	–	–
COc1cc(C2C(C#N)=C(N)Oc3c(N)cc4nc5ccccc5nc4c32)cc(Br)c1OC (stereo not drawn)	12.1 µM	25.6 µM	6.2 µM	5.3 µM	–	–	–	–	–	–	–	–
N#CC1=C(N)Oc2c(N)cc3nc4ccccc4nc3c2C1c1ccc([N+](=O)[O-])cc1 (stereo not drawn)	14.5 µM	> 50 µM	18.1 µM	15.9 µM	–	–	–	–	–	–	–	–
COc1cc(C2C(C#N)=C(N)Oc3c(N)cc4nc5ccccc5nc4c32)cc(OC)c1Br (stereo not drawn)	18.2 µM	> 50 µM	12.4 µM	24.2 µM	–	–	–	–	–	–	–	–
CCOC(=O)C1=C(N)Oc2c(N)cc3nc4ccccc4nc3c2C1c1cccc([N+](=O)[O-])c1 (stereo not drawn)	> 50 µM	20.2 µM	7.3 µM	> 50 µM	–	–	–	–	–	–	–	–
O=P1(N(CCCl)CCCl)NCCCO1 (stereo not drawn) [CYCLOPHOSPHAMIDE ANHYDROUS]	–	–	–	–	–	–	66.7 to 67.8%	–	–	34.3 to 35.6 g	–	–
CCOC(=O)C1=C(N)Oc2c(N)cc3nc4ccccc4nc3c2C1c1ccccc1Br (stereo not drawn)	30.2 µM	28.4 µM	5 µM	6.32 µM	38.9%	28.9%	45.6%	35.78 g	37.44 g	35.56 g	Active	Active
CCOC(=O)C1=C(N)Oc2c(N)cc3nc4ccccc4nc3c2C1c1ccccc1F (stereo not drawn)	35.6 µM	18.7 µM	6.3 µM	24.5 µM	–	–	–	–	–	–	–	–
COc1cc([C@@H]2c3cc4c(cc3[C@@H](O[C@@H]3O[C@@H]5CO[C@@H](C)O[C@H]5[C@H](O)[C@H]3O)[C@H]3COC(=O)[C@H]23)OCO4)cc(OC)c1O	–	–	–	–	–	–	–	–	–	–	–	Active
CCOC(=O)C1=C(N)Oc2c(N)cc3nc4ccccc4nc3c2C1c1ccc(Cl)c(Cl)c1 (stereo not drawn)	> 50 µM	8.4 µM	24.2 µM	17.1 µM	–	–	–	–	–	–	–	–
CCOC(=O)C1=C(N)Oc2c(N)cc3nc4ccccc4nc3c2C1c1cc(Br)ccc1OC (stereo not drawn)	> 50 µM	> 50 µM	13.9 µM	> 50 µM	–	–	–	–	–	–	–	–
CC(C)c1ccc(C2C(C#N)=C(N)Oc3c(N)cc4nc5ccccc5nc4c32)cc1 (stereo not drawn)	20.6 µM	> 50 µM	16.2 µM	14.5 µM	–	–	–	–	–	–	–	–
COc1ccc(C2C(C#N)=C(N)Oc3c(N)cc4nc5ccccc5nc4c32)cc1OC (stereo not drawn)	> 50 µM	> 50 µM	> 50 µM	> 50 µM	–	–	–	–	–	–	–	–
COc1ccc(C2C(C#N)=C(N)Oc3c(N)cc4nc5ccccc5nc4c32)c(OC)c1OC (stereo not drawn)	47.1 µM	28.1 µM	15.3 µM	20.3 µM	–	–	–	–	–	–	–	–
CC[C@@]1(O)C(=O)OCc2c1cc1n(c2=O)Cc2cc3cc(O)ccc3nc2-1 [HYDROXYCAMPTOTHECIN]	3.5 µM	2.4 µM	10.1 µM	0.8 µM	–	–	–	–	–	–	Active	–
